# Molecular target: T1, 17-beta-hydroxysteroid dehydrogenase 13 (Homo sapiens, UniProt Q7Z5P4)
# T1 sequence (Q7Z5P4 whole entry): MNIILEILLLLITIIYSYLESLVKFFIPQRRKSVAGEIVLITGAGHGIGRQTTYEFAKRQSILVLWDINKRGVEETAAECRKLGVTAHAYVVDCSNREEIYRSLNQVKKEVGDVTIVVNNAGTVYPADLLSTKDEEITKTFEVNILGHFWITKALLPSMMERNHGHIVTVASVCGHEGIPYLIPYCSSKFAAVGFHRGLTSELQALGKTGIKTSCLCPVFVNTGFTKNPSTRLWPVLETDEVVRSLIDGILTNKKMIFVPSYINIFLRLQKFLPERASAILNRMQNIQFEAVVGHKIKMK
# Test: 17β-HSD13 Rapid-Fire Mass Spectrometry Assay
# Excerpt: Recombinant human 17β-HSD13 was expressed and purified from sf9 cells at Charles River Labs (Saffron Walden, UK). Leukotriene B4 (Catalog #71160-24-2) and 12-oxoleukotriene B4 (Catalog #20140) were purchased from Cayman Chemicals (Ann Arbor, MI). NAD+ (Catalog #N8285), BSA (Catalog #A7030), DMSO (Catalog #D2650), and Tween-20 (Catalog #11332465001) were purchased from Sigma (St. Louis, MO). Formic acid (Catalog #28905) was from ThermoFisher Scientific and 384 deep well PP microplates (Catalog #784261) were from Greiner Bio-One. In a typical IC50 assay performed in a 384w PP microplate, test compounds (0-100 μM) were incubated with HSD17B13 (80 nM), LTB4 (10 μM), and NAD+ (0.5 mM) in 10 μL assay buffer (20 mM Tris (pH 7.5), BSA (0.005%), and Tween-20 (0.01%)) at RT for 3 h. The assays were quenched by adding 20 μL of 0.15% aqueous formic acid and the plates were frozen at −80° C. RF/MS analysis was performed at PureHoney Technologies (Billerica, MA) on a RapidFire RF300 system (Agilent Technologies, Inc.) coupled to an API 4000 triple quadrupole mass spectrometer (Sciex) equipped with Agilent RapidFire cartridge type A (C4). […] Leukotriene B4 (335.3) and 12-oxoLeukotriene B4 (333.3) SRM transitions were optimized with Discovery Quant software and extracted ion counts for these analytes were determined.
compound,measurement,value
"COc1ccc(-c2nc3sc4c(O)cccc4c3c(=O)n2CCNCc2cnc[nH]2)c(C2CC2)c1 [US20230416268, Example 31]",IC50,< 0.1 µM

# — BindingDB's records for patent US20230416268 (Enanta Pharmaceuticals, 2023)
